# In patent US5510338A, “Phosphonoalkylquinolin-2-ones as novel antagonists of non-NMDA ionotropic excitatory amino acid receptors” (priority 1994, dated 1996):
# Tested on: KA receptors (KA-induced currents in rat brain mRNA-injected Xenopus oocytes)
# Experiment: Inhibition of KA-induced currents in rat brain mRNA-injected Xenopus oocytes
# Assay type: cell-based
# Settings: not given
row,SMILES,activity in words of related compounds tested
1,"CCOP(=O)(Cc1cc(=O)[nH]c2cc(Cl)cc(Cl)c12)OCC [Example 21a, 5,7-Dichloro-4-(diethoxyphosphinyl)methylquinolin-2-one]",essentially inactive

# Same assay, conditions: rat brain mRNA-injected Xenopus oocytes; voltage clamped at -60 to -70 mV; IC50 converted to Ki by Cheng-Prusoff equation
row,SMILES,"Potency to inhibit KA-induced currents, Ki [µM]"
1,"O=c1cc(CP(=O)(O)O)c2ccc(Cl)cc2[nH]1 [Example 2, 7-Chloro-4-phosphonomethylquinolin-2-one]",32
2,"O=c1cc(CP(=O)(O)O)c2c([N+](=O)[O-])c(Cl)ccc2[nH]1 [Example 26, 6-Chloro-5-nitro-4-phosphonomethylquinolin-2-one]",> 300
3,"O=C(O)c1cc(CP(=O)(O)O)c2ccc(Cl)cc2n1 [Example 23, 2-Carboxy-7-chloro-4-phosphonomethylquinoline]",129
4,"O=c1cc(CP(=O)(O)O)c2ccc(I)cc2[nH]1 [Example 4, 7-Iodo-4-phosphonomethylquinolin-2-one]",15.6
5,"O=c1cc(P(=O)(O)O)c2ccc(Cl)cc2[nH]1 [Example 24, 7-Chloro-4-phosphonoquinolin-2-one]",> 100
6,"CCOP(=O)(Cc1cc(=O)[nH]c2cc(Cl)cc(Cl)c12)OCC [Example 21a, 5,7-Dichloro-4-(diethoxyphosphinyl)methylquinolin-2-one]",480
7,"O=c1cc(CP(=O)(O)O)c2c(Cl)cc(Cl)cc2[nH]1 [Example 3, 5,7-Dichloro-4-phosphonomethylquinolin-2-one]",18.2
8,"O=c1cc(CP(=O)(O)O)c2cc(Cl)c(Cl)cc2[nH]1 [Example 5, 6,7-Dichloro-4-phosphonomethylquinolin-2-one]",9.6
9,"O=C(O)c1cc(CCP(=O)(O)O)c2ccc(Cl)cc2n1 [Example 22, 2-Carboxy-7-chloro-4-phosphonethylquinoline]",450

# Target: GLU
# Experiment: Inhibition of EAA receptor ligand binding, GLU
# Settings: read-out: Receptor Potency (Ki), GLU
row,SMILES,Ki [µM]
1,"O=c1cc(CCP(=O)(O)O)c2ccc(Cl)cc2[nH]1 [Example 1, 7-Chloro-4-phosphonethylquinolin-2-one]",600
2,"O=c1cc(CP(=O)(O)O)c2ccc(Cl)cc2[nH]1 [Example 2, 7-Chloro-4-phosphonomethylquinolin-2-one]",30
3,"O=c1cc(CP(=O)(O)O)c2c([N+](=O)[O-])c(Cl)ccc2[nH]1 [Example 26, 6-Chloro-5-nitro-4-phosphonomethylquinolin-2-one]",> 1000
4,"O=c1cc(CP(=O)(O)O)c2ccc(Cl)c([N+](=O)[O-])c2[nH]1 [Example 25, 7-Chloro-8-nitro-4-phosphonomethylquinolin-2-one]",> 1000
5,"O=c1cc(CP(=O)(O)O)c2ccc(I)cc2[nH]1 [Example 4, 7-Iodo-4-phosphonomethylquinolin-2-one]",35
6,"O=c1cc(P(=O)(O)O)c2ccc(Cl)cc2[nH]1 [Example 24, 7-Chloro-4-phosphonoquinolin-2-one]",> 300
7,"O=c1cc(CP(=O)(O)O)c2c(Cl)cc(Cl)cc2[nH]1 [Example 3, 5,7-Dichloro-4-phosphonomethylquinolin-2-one]",> 100
8,"O=c1cc(CP(=O)(O)O)c2cc(Cl)c(Cl)cc2[nH]1 [Example 5, 6,7-Dichloro-4-phosphonomethylquinolin-2-one]",> 100
9,"O=C(O)c1cc(CCP(=O)(O)O)c2ccc(Cl)cc2n1 [Example 22, 2-Carboxy-7-chloro-4-phosphonethylquinoline]",> 100

# Tested on: CNQX-labeled non-NMDA receptors
# Experiment: Inhibition of EAA receptor ligand binding, CNQX (CNQX-labeled non-NMDA receptors)
# Settings: in words, from Table II data
row,SMILES,selectivity for NMDA vs non-NMDA receptors
1,"O=c1cc(CP(=O)(O)O)c2ccc(Cl)cc2[nH]1 [Example 2, 7-Chloro-4-phosphonomethylquinolin-2-one]",not very selective
2,"O=c1cc(CP(=O)(O)O)c2ccc(I)cc2[nH]1 [Example 4, 7-Iodo-4-phosphonomethylquinolin-2-one]",not very selective
3,"O=c1cc(CP(=O)(O)O)c2c(Cl)cc(Cl)cc2[nH]1 [Example 3, 5,7-Dichloro-4-phosphonomethylquinolin-2-one]",quite selective
4,"O=c1cc(CP(=O)(O)O)c2cc(Cl)c(Cl)cc2[nH]1 [Example 5, 6,7-Dichloro-4-phosphonomethylquinolin-2-one]",quite selective

# Same assay, conditions: inhibition of EAA receptor ligand binding; CNQX-labeled non-NMDA receptors; read-out: Receptor Potency (Ki), CNOX
row,SMILES,Ki [µM]
1,"O=c1cc(CCP(=O)(O)O)c2ccc(Cl)cc2[nH]1 [Example 1, 7-Chloro-4-phosphonethylquinolin-2-one]",91
2,"O=c1cc(CP(=O)(O)O)c2ccc(Cl)cc2[nH]1 [Example 2, 7-Chloro-4-phosphonomethylquinolin-2-one]",59
3,"O=c1cc(CP(=O)(O)O)c2c([N+](=O)[O-])c(Cl)ccc2[nH]1 [Example 26, 6-Chloro-5-nitro-4-phosphonomethylquinolin-2-one]",> 1000
4,"O=C(O)c1cc(CP(=O)(O)O)c2ccc(Cl)cc2n1 [Example 23, 2-Carboxy-7-chloro-4-phosphonomethylquinoline]",64
5,"O=c1cc(CP(=O)(O)O)c2ccc(Cl)c([N+](=O)[O-])c2[nH]1 [Example 25, 7-Chloro-8-nitro-4-phosphonomethylquinolin-2-one]",300
6,"O=c1cc(CP(=O)(O)O)c2ccc(I)cc2[nH]1 [Example 4, 7-Iodo-4-phosphonomethylquinolin-2-one]",26
7,"CCOP(=O)(Cc1cc(=O)[nH]c2cc(Cl)cc(Cl)c12)OCC [Example 21a, 5,7-Dichloro-4-(diethoxyphosphinyl)methylquinolin-2-one]",> 100
8,"O=c1cc(CP(=O)(O)O)c2c(Cl)cc(Cl)cc2[nH]1 [Example 3, 5,7-Dichloro-4-phosphonomethylquinolin-2-one]",38
9,"O=c1cc(CP(=O)(O)O)c2cc(Cl)c(Cl)cc2[nH]1 [Example 5, 6,7-Dichloro-4-phosphonomethylquinolin-2-one]",15
10,"O=C(O)c1cc(CCP(=O)(O)O)c2ccc(Cl)cc2n1 [Example 22, 2-Carboxy-7-chloro-4-phosphonethylquinoline]",384

# Target: T1, Glycine (strychnine insensitive glycine binding) (Rattus norvegicus, UniProt P35439)
# T1 construct: from tissue
# Experiment: Strychnine insensitive glycine binding
# Settings: read-out: Receptor Potency (Ki), Glycine
# Experimental: Binding assays for the displacement of ^3 H!AMPA were performed as described by Murphy et al. (Neurochemical Reseach. 12: 775-781 1987!). KA binding assays were performed as described by London et al (Molecular Pharmacology. 15:492-505 1979!); strychnine insensitive glycine binding was evaluated by the method of Snell et al (European Journal of Pharmacology. 156: 105-110 1988!.
row,SMILES,Ki [µM]
1,"O=c1cc(CCP(=O)(O)O)c2ccc(Cl)cc2[nH]1 [Example 1, 7-Chloro-4-phosphonethylquinolin-2-one]",231
2,"O=c1cc(CP(=O)(O)O)c2ccc(Cl)cc2[nH]1 [Example 2, 7-Chloro-4-phosphonomethylquinolin-2-one]",10
3,"O=c1cc(CP(=O)(O)O)c2c([N+](=O)[O-])c(Cl)ccc2[nH]1 [Example 26, 6-Chloro-5-nitro-4-phosphonomethylquinolin-2-one]",> 1000
4,"O=C(O)c1cc(CP(=O)(O)O)c2ccc(Cl)cc2n1 [Example 23, 2-Carboxy-7-chloro-4-phosphonomethylquinoline]",68
5,"O=c1cc(CP(=O)(O)O)c2ccc(Cl)c([N+](=O)[O-])c2[nH]1 [Example 25, 7-Chloro-8-nitro-4-phosphonomethylquinolin-2-one]",> 1000
6,"O=c1cc(CP(=O)(O)O)c2ccc(I)cc2[nH]1 [Example 4, 7-Iodo-4-phosphonomethylquinolin-2-one]",29
7,"O=c1cc(P(=O)(O)O)c2ccc(Cl)cc2[nH]1 [Example 24, 7-Chloro-4-phosphonoquinolin-2-one]",> 1000
8,"CCOP(=O)(Cc1cc(=O)[nH]c2cc(Cl)cc(Cl)c12)OCC [Example 21a, 5,7-Dichloro-4-(diethoxyphosphinyl)methylquinolin-2-one]",103
9,"O=c1cc(CP(=O)(O)O)c2c(Cl)cc(Cl)cc2[nH]1 [Example 3, 5,7-Dichloro-4-phosphonomethylquinolin-2-one]",28
10,"O=C(O)c1cc(CCP(=O)(O)O)c2ccc(Cl)cc2n1 [Example 22, 2-Carboxy-7-chloro-4-phosphonethylquinoline]",> 1000

# Tested on: kainate receptors
# Experiment: not given
# Settings: U.S. Pat. No. 4,657,899, Table I on column 13; cited from earlier work
row,SMILES,binding affinity for kainate receptors (in words)
1,CCC(c1ccccc1CCCP(=O)(O)O)C(N)C(=O)O (stereo not drawn) [2-amino-3-2-(3-phosphonopropyl) phenyl!pentanoic acid],very low binding affinity
2,NC(Cc1ccccc1CP(=O)(O)O)C(=O)O (stereo not drawn) [2-amino-3-2-phosphonomethylphenyl!propanoic acid],very low binding affinity
3,NC(Cc1ccccc1CCP(=O)(O)O)C(=O)O (stereo not drawn) [2-amino-3-2-(2-phosphonoethyl)phenyl!propanoic acid],very low binding affinity
4,NC(CCCc1ccccc1CP(=O)(O)O)C(=O)O (stereo not drawn) [2-amino-5-2-phosphonomethylphenyl!pentanoic acid],very low binding affinity

# Tested on: NMDA
# Experiment: not given
# Settings: U.S. Pat. No. 4,657,899; cited from earlier work
row,SMILES,NMDA antagonist activity (in words)
1,CCC(c1ccccc1CCCP(=O)(O)O)C(N)C(=O)O (stereo not drawn) [2-amino-3-2-(3-phosphonopropyl) phenyl!pentanoic acid],antagonists of NMDA
2,NC(Cc1ccccc1CP(=O)(O)O)C(=O)O (stereo not drawn) [2-amino-3-2-phosphonomethylphenyl!propanoic acid],antagonists of NMDA
3,NC(Cc1ccccc1CCP(=O)(O)O)C(=O)O (stereo not drawn) [2-amino-3-2-(2-phosphonoethyl)phenyl!propanoic acid],antagonists of NMDA
4,NC(CCCc1ccccc1CP(=O)(O)O)C(=O)O (stereo not drawn) [2-amino-5-2-phosphonomethylphenyl!pentanoic acid],antagonists of NMDA
